From article PMC5882690, “Mechanical characteristics of beta sheet-forming peptide hydrogels are dependent on peptide sequence, concentration and buffer composition” (Royal Society Open Science, 2018)
Where a SMILES comes first, the peptide text is derived from it.

Legend:
[1] = Fibre width of dried SAP hydrogels by scanning electron microscopy; assay type: physicochemical; conditions: SEM of critical-point-dried hydrogel, 15 mg ml^-1 in Tris–NaCl, ionic strength 140 mM, pH 7.2–8.0, assembled overnight; 25 fibre widths per picture, ImageJ; mean ± SD
Procedure: Nanofibrillar structure of SAP hydrogels was formed for scanning electron microscopy (SEM) (Zeiss SUPRA® 40VP) at a concentration of 15 mg ml^−1 in Tris–NaCl buffer to a final ionic strength of 140 mM and a final pH of 7.2–8.0, as described in table 1. SAP hydrogels were assembled overnight. Self-assembly was apparent due to the gelation and β-sheet formation of the fibrillar structure as described by Aggeli et al. and Carrick et al. (by circular dichroism, Fourier transform infrared spectroscopy and transmission electron microscopy) and was further confirmed in the present study for P11-4 and P11-8 (see electronic supplementary material, figures S4, S6 and S7). SAP hydrogels were fixed with a glutaraldehyde solution (4% in borate buffer, using 0.1 ml per 0.1 ml peptide hydrogel) for 24 h. Gels were then dehydrated by increasing ethanol concentration in steps (25%, 50%, 60%, 70%, 80%, 90%, 100% ethanol) at 15 min intervals. The last step (100% ethanol) was repeated three times. Afterwards, critical point drying (Balzers Union, CPD020) was applied to stabilize the natural three-dimensional network structure. Finally, the network structures were glued on an SEM stub with carbon tape and sputter coated with 2.5 nm gold–palladium (Thermo VG Scientific, Polaron, SC7620). […] Fibre diameters were analysed with IMAGEJ software. Twenty-five fibre widths were measured for each picture.

[2] = literature, cited from earlier work
Text: The topographical structure of SAP hydrogels is important for the three-dimensional arrangement of cells within scaffolds. Zhang et al. state that the fibres of SAP hydrogels resemble the nanometre scale of natural polymer networks and thus allow three-dimensional cell growth. […] (figure 1). […] Moreover, they observed the formation fibre entanglements with diameters of 30 nm. The phenomenon of fibril clustering was also reported by Zhang et al. for the peptides KFE8 and KLD12, characterized by a typical single fibre width of 7 nm and thicker diameters for the bundles of fibres.

[3] = Oscillatory amplitude sweep (storage modulus G′ in linear viscoelastic region, yield point); assay type: physicochemical; conditions: for yield point YP / peptide hydrogel stiffness G′ / yield point YP (strain where G′ < 95% of original value): mean ± SD, n = 3; for peptide hydrogel stiffness G′: 140 mM ionic strength, assembled overnight; for peptide hydrogel stiffness G′ / yield point YP (strain where G′ < 95% of original value): 37°C
Procedure: […] The amplitude sweep tests were performed to measure storage moduli (G′) within the linear viscoelastic region. Calculations of the gel breaking points (yield points) were performed with MATLAB depending on the different peptide concentrations. Therefore, the yield strain was defined as the point where G′ is less than 95% of its original value. Oscillatory time sweep experiments were performed to study the gelation speed and hydrogel stiffness. Time sweeps up to 150 min measuring time using a frequency of 1 rad s^−1 and amplitude gamma of 0.05% were used. SAP hydrogel stiffness was determined after the equilibrium of the storage modulus (G′) was reached (t = 100 min). To determine the gelation speed, the slope of increasing storage modulus over time was calculated in the interval from t = 5 to 10 min after placing peptide solutions onto the rheometer.
To study SAP hydrogel stiffness within the linear viscoelastic region and gel breaking points according to the peptide concentrations, unary SAP hydrogels (300 µl) were prepared in vials at concentrations of 15 mg ml^−1, 20 mg ml^−1 and 30 mg ml^−1 by dissolving first the lyophilized peptides in 150 µl of buffer A and then adding 150 µl of peptide-specific Tris–NaCl buffer B according to table 1. Complementary SAP hydrogels (P11-13/14 and P11-28/29) were obtained by dissolving 150 µl of P11-13 in 0.1 M Tris buffer + 0.052 M NaCl pH 8 and 150 µl P11-14 in 0.055 M Tris buffer + 0.096 M NaCl pH 7.2 (table 1). The P11-13 and P11-14 solutions were then mixed (1 : 1) to obtain 300 µl of complementary SAP hydrogel with a final ionic strength of 140 mM and a pH of 7.2. All SAP hydrogels were allowed to assemble overnight.
(§1) To study the influence of divalent ions and different media on SAP hydrogel stiffness, gelation speed and gel breaking points (yield points), SAPs were prepared at a concentration of 15 mg ml^−1 in the different media, Tris–NaCl, Tris–MgSO4, DMEM or artificial saliva, according to table 1. All experiments were done at least in duplicate. Statistical evaluation was performed with GRAPHPAD PRISM version 6.0 based on a one-way ANOVA test followed by Tukey's multiple comparison test.

[4] = Oscillatory time sweep (hydrogel stiffness at t = 100 min, gelation speed); assay type: physicochemical; conditions: for Stiffness (storage modulus G′ at t = 100 min) / Speed (gelation speed, dG′/dt 5–10 min): time sweep, mean ± SD
Procedure: Dynamic oscillatory amplitude sweeps up to 150% strain were performed at 37°C using an Anton Paar MCR301 rheometer equipped with a 10 mm diameter stainless steel parallel plate geometry at a 0.9 mm measuring gap. The amplitude sweep tests were performed to measure storage moduli (G′) within the linear viscoelastic region. Calculations of the gel breaking points (yield points) were performed with MATLAB depending on the different peptide concentrations. Therefore, the yield strain was defined as the point where G′ is less than 95% of its original value. Oscillatory time sweep experiments were performed to study the gelation speed and hydrogel stiffness. Time sweeps up to 150 min measuring time using a frequency of 1 rad s^−1 and amplitude gamma of 0.05% were used. SAP hydrogel stiffness was determined after the equilibrium of the storage modulus (G′) was reached (t = 100 min). To determine the gelation speed, the slope of increasing storage modulus over time was calculated in the interval from t = 5 to 10 min after placing peptide solutions onto the rheometer.
as §1

[5] = 15 mg ml^-1, Tris–NaCl, amplitude sweep
[6] = 20 mg ml^-1, Tris–NaCl, amplitude sweep
[7] = 30 mg ml^-1, Tris–NaCl, amplitude sweep
[8] = 15 mg ml^-1, artificial saliva, n = 3
[9] = 15 mg ml^-1, serum-free DMEM, n = 3
[10] = artificial saliva versus DMEM, 15 mg ml^-1

In the case of `CC(=O)N[C@@H](CCC(N)=O)C(=O)N[C@@H](CCC(N)=O)C(=O)N[C@@H](CCCNC(=N)N)C(=O)N[C@@H](Cc1ccccc1)C(=O)N[C@@H](CCC(=O)O)C(=O)N[C@@H](Cc1c[nH]c2ccccc12)C(=O)N[C@@H](CCC(=O)O)C(=O)N[C@@H](Cc1ccccc1)C(=O)N[C@@H](CCC(=O)O)C(=O)N[C@@H](CCC(N)=O)C(=O)N[C@@H](CCC(N)=O)C(N)=O` [P11-4, CH3CO-QQRFEWEFEQQ-NH2] (Ac-QQRFEWEFEQQ-NH2), the mean fibre width [1] is listed as 32 ± 6.6 nm, the fibril width ([2]; P11-4 and P11-8 prepared in NaCl) is listed as 14 nm and the “diameter of fibre entanglements” value ([2]; prepared in NaCl) is listed as 30 nm. For the same compound, the “yield point YP” value ([3]; 15 mg ml^-1, Tris–MgSO4, amplitude sweep) was 0.05±0.03%, the “peptide hydrogel stiffness G′” value [3, 5] was 2.1± 1.0 kPa and the “yield point YP (strain where G′ < 95% of original value)” value [3, 5] was 2.3±0.3%. The “yield point YP” value [3, 5] was 0.45± 0.05%, the “yield point YP” value ([3]; 15 mg ml^-1, artificial saliva, amplitude sweep up to 100% strain) was 0.3 ± 0.02% and the “yield point YP” value ([3]; 15 mg ml^-1, serum-free DMEM, amplitude sweep up to 100% strain) was 2.3 ± 0.44%. The “peptide hydrogel stiffness G′” value [3, 6] was 2.4± 0.3 kPa, the “yield point YP (strain where G′ < 95% of original value)” value [3, 6] was 1.3±0.3% and the “peptide hydrogel stiffness G′” value [3, 7] was 4.6± 1.3 kPa. The “yield point YP (strain where G′ < 95% of original value)” value [3, 7] was 1.2±0.7%, the “factor of increase of SAP hydrogel stiffness” value ([3]; doubling SAP concentration from 15 to 30 mg ml^-1, Tris–NaCl) was 2 and the “Stiffness (storage modulus G′ at t = 100 min)” value ([4]; 15 mg ml^-1, Tris–MgSO4, 1 rad s^-1, 37°C, n = 3) was 9.5±2.7 kPa. The “Speed (gelation speed, dG′/dt 5–10 min)” value ([4]; 15 mg ml^-1, Tris–MgSO4) was 0.8±0.1 G`/min, the “Stiffness (storage modulus G′ at t = 100 min)” value ([4]; 15 mg ml^-1, Tris–NaCl, 1 rad s^-1, 37°C, n = 3) was 5.0± 2.1 kPa and the “Speed (gelation speed, dG′/dt 5–10 min)” value ([4]; 15 mg ml^-1, Tris–NaCl) was 1.6± 0.6 G`/min. The “Speed (gelation speed, dG′/dt 5–10 min)” value [4, 8] was 2.3 ± 0.9 G`/min, the “Stiffness (storage modulus G′ at t = 100 min)” value [4, 8] was 4.9 ± 1.6 kPa and the “Speed (gelation speed, dG′/dt 5–10 min)” value [4, 9] was 1.3 ± 0.4 G`/min. For the same compound, the “Stiffness (storage modulus G′ at t = 100 min)” value [4, 9] was 0.4± 0.01 kPa, the “factor of increase of gelation (speed) in artificial saliva” value [4, 10] was 1.8 and the “factor of increase of hydrogel stiffness if prepared with artificial saliva” value [4, 10] was 12.
